Experimental data: PMC5215849 (Antiviral research, 2016)
Converted amounts (≈) assume the structure as drawn. Like-named read-outs stand apart in the source and are kept apart here.

Experiments:
ZIKV (P 6-740) [1] = type: in vivo, AG129 mice; details: for Mean weight change from days 7 to 13: vehicle −3.1 ± 2.4 g, p<0.001
ZIKV Malaysian P 6-740 = assay: Virus yield reduction
ZIKV PRVABC-59 [2] = assay: Virus yield reduction; details: Zika virus
ZIKV = assay: Virus yield reduction concentration-response; type: cell-based, Zika virus; details: single test
ZIKV MR-766 [3] = assay: CPE reduction assay, ZIKV Ugandan MR-766; type: cell-based; details: Zika virus
ZIKV P 6-740 [4] = assay: CPE reduction assay, ZIKV Malaysian P 6-740; type: cell-based; details: Zika virus
ZIKV PRVABC-59 [5] = assay: CPE reduction assay, ZIKV Puerto Rican PRVABC-59; type: cell-based; details: Zika virus
ZIKV P 6-740 [6] = assay: Virus yield reduction; details: Zika virus
ZIKV (P 6-740) [7] = type: in vivo, AG129 mice
ZIKV (P 6-740) [8] = assay: Re-challenge of surviving BCX4430-treated AG129 mice with ZIKV; type: in vivo; details: BCX4430-treated mice (300 mg/kg/d) that survived initial ZIKV challenge
ZIKV MR-766 [9] = assay: Virus yield reduction; details: Zika virus
[10] = Huh-7, read-out: VYR assay EC90
[11] = Vero 76, read-out: VYR assay EC90
[12] = Huh-7, read-out: CPE red. assay EC50
[13] = RD, read-out: CPE red. assay EC50
[14] = Vero 76, read-out: CPE red. assay EC50
[15] = 300 mg/kg/d bid for 7 days beginning 3 dpi

Row | Structure (SMILES) | selectivity ratio (ZIKV Malaysian P 6-740; African green monkey) | selectivity ratio (ZIKV Malaysian P 6-740; human) | EC90 (ZIKV PRVABC-59 [2]; [10]) [µg/mL] | EC90 (ZIKV PRVABC-59 [2]; RD, read-out: VYR assay EC90) [µg/mL] | EC90 (ZIKV PRVABC-59 [2]; [11]) [µg/mL] | EC50 (ZIKV MR-766 [3]; [12]) [µg/mL] | EC50 (ZIKV MR-766 [3]; [13]) [µg/mL] | EC50 (ZIKV MR-766 [3]; [14]) [µg/mL] | EC50 (ZIKV P 6-740 [4]; [12]) [µg/mL] | EC50 (ZIKV PRVABC-59 [5]; [12]) [µg/mL] | EC50 (ZIKV PRVABC-59 [5]; [13]) [µg/mL] | EC50 (ZIKV PRVABC-59 [5]; [14]) [µg/mL] | other results
1 | NC(=O)c1ncn([C@@H]2O[C@H](CO)[C@@H](O)[C@H]2O)n1 [Ribavirin, reference compound] | 1.6 | 24.5 | 10.4 ± 0.8 (≈ 42.6 µM) | 46.3 ± 8.6 (≈ 190 µM) | 281 ± 108 (≈ 1150 µM) | 8.9 ± 7.9 (≈ 36.4 µM) | 9.3 ± 5.2 (≈ 38.1 µM) | 85 ± 77.9 (≈ 348 µM) | 7.2 ± 2.8 (≈ 29.5 µM) | 3.8 ± 1.6 (≈ 15.6 µM) | 10 ± 6 (≈ 40.9 µM) | 23 ± 16.8 (≈ 94.2 µM) | Viral RNA level in pooled serum on day 5 (qRT-PCR) (ZIKV (P 6-740) [1]; ribavirin i.p. bid 75 or 50 mg/kg/d): did not improve viral RNA levels; Outcome (survival) (ZIKV (P 6-740) [1]; ribavirin i.p. bid 75 or 50 mg/kg/d for 8 days): did not improve outcomes; Protection against weight loss (ZIKV (P 6-740) [1]; ribavirin i.p. bid 75 or 50 mg/kg/d, days 7 to 13): did not protect against weight loss; Activity in virus yield reduction assay (ZIKV; Vero76 cells (Figure 1A)): not active; Activity in virus yield reduction assay (ZIKV; human cell lines Huh-7 and RD (Figures 1B and C)): confirmed the antiviral activity
2 | Nc1ncnc2c([C@@H]3N[C@H](CO)[C@@H](O)[C@H]3O)c[nH]c12 [BCX4430] | 7.3 | 20.5 | 6.7 ± 1.2 (≈ 25.3 µM) | 10 ± 2.2 (≈ 37.7 µM) | 18.2 ± 2.7 (≈ 68.6 µM) | 5.7 ± 0.9 (≈ 21.5 µM) | 4.4 ± 1.3 (≈ 16.6 µM) | 11.7 ± 4.7 (≈ 44.1 µM) | 5.5 ± 0.1 (≈ 20.7 µM) | 4.7 ± 0.6 (≈ 17.7 µM) | 4.7 ± 2.2 (≈ 17.7 µM) | 3.8 ± 2.5 (≈ 14.3 µM) | Mean weight change from days 7 to 13 (ZIKV (P 6-740) [1]; 150 mg/kg/d): -0.3 ± 0.8 g; Weight between 0 and 19 dpi (ZIKV (P 6-740) [1]; 300 mg/kg/d, similar to sham infected animals treated with the same dose): did not decline substantially; Mean weight change from days 7 to 13 (ZIKV (P 6-740) [1]; 300 mg/kg/d): +0.2 ± 0.5 g; Viral RNA level in pooled serum on day 5 (qRT-PCR) (ZIKV (P 6-740) [1]; either dose of BCX4430 (300 or 150 mg/kg/d)): significant reduction in viremia; EC90 (ZIKV P 6-740 [6]; [10]): 4.9 ± 0.9 µg/mL (≈ 18.5 µM); EC90 (ZIKV P 6-740 [6]; [11]): 13.8 ± 3.7 µg/mL (≈ 52 µM); Protection from weight loss between 7 and 13 dpi (ZIKV (P 6-740) [7]; 300 mg/kg/d beginning 1, 3 or 5 dpi, vs vehicle p<0.001): Significant protection from weight loss; Viral RNA levels in serum on 5 dpi (ZIKV (P 6-740) [7]; 300 mg/kg/d beginning 1 or 3 dpi): not significantly decreased; Median survival (ZIKV (P 6-740) [7]; 300 mg/kg/d bid for 7 days beginning 1 dpi): > 28 days; Median survival (ZIKV (P 6-740) [7]; [15]): 19.5 days; Survivors (ZIKV (P 6-740) [7]; [15]): only a single mouse survived; Median survival (ZIKV (P 6-740) [7]; 300 mg/kg/d bid for 7 days beginning 5 dpi): 18 days; Median survival (ZIKV (P 6-740) [7]; 300 mg/kg/d bid for 7 days beginning 7 dpi): 17 days; Neutralizing antibody titers in serum just prior to re-challenge (ZIKV (P 6-740) [8]): 4-5 log10 PRNT50; EC90 (ZIKV MR-766 [9]; [10]): 6.4 µg/mL (≈ 24.1 µM); EC90 (ZIKV MR-766 [9]; RD, read-out: VYR assay EC90): 5.4 ± 1.1 µg/mL (≈ 20.4 µM); EC90 (ZIKV MR-766 [9]; [11]): 8.7 µg/mL (≈ 32.8 µM); EC50 (ZIKV P 6-740 [4]; [14]): 11.5 ± 4.4 µg/mL (≈ 43.4 µM)
